Reference: patent publication US20240189495A1, “METHODS OF PREPARING AN EXTRACORPOREAL CIRCUIT FOR ANTICOAGULATION” (Lawell Therapeutics, LLC, priority 2021, published 2024)

What was measured:
Type in all cases: physicochemical
[1] = Adsorption of nafamostat to circuit tubing, in vitro dialysis circuit without filter, HPLC; details: for Percent of Nafamostat Remaining as a Ratio of the Starting Concentration at Time 0: tubing only, no filter
Procedure: A dialysis apparatus was established as described in FIG. 5 without using a filter. An experiment was conducted to determine the adsorption characteristics to the tubing. The solution was circulated through the tubing at typical CRRT flow rates of 100-300 milliliters per minute (FIG. 5). The concentration of nafamostat was measured via HPLC at 0, 5, 10 and 20 minutes. Only one reservoir of nafamostat was used. Therefore, any change in concentration represents adsorption since the molecule cannot escape the system. […] Therefore, any change in concentration can be attributed to adsorption onto the filter membrane tested.

[2] = Saturation of polyacrylonitrile filter by repeated replenishment of nafamostat solution (Example 8)
Procedure: To determine if a polyacrylonitrile filter can be saturated, and if so, what quantity of nafamostat would be required, an in vitro experiment was conducted wherein 632 milligrams of nafamostat were passed through the filter in the same manner as described in FIG. 5 for 20 minutes. Then the solution was replenished with an additional 632 milligrams (solution B-1), which was circulated for an additional 20 minutes, followed by replenishment with an additional 632 milligrams (solution B-2), which was circulated for an additional 20 minutes and finally replenished with an additional 379 milligrams. The total quantity of 2275 milligrams represents a three-day consumption of nafamostat at the maximum dose of 31.2 mg/h. As one can see from Table 4, nafamostat continues to adsorb to the polyacrylonitrile filter even after the entire quantity of 2275 milligrams has been delivered.

[3] = Filter membrane adsorption in in vitro dialysis circuit, HPLC; details: for Quantity (% nafamostat free base) remaining after the initiation of priming: 500 mL; for Quantity (mcg nafamostat free base) adsorbed over time (minutes), Avg.: average of 5, 10, 20 min; for Time in which the change in concentration is complete: regardless the solution concentration
Procedure: A dialysis apparatus was established as described in FIG. 5 using a PS, PES, PAES, or a PAN filter. A series of experiments was conducted using various filter membranes in an in vitro model to determine the filter membrane adsorption characteristics. A solution of nafamostat was circulated through the blood and dialysate sides of the filter at typical CRRT flow rates of 100-300 milliliters per minute. The concentration of nafamostat was measured via HPLC at 0, 5, 10 and 20 minutes. Only one reservoir of nafamostat was used. Therefore, any change in concentration represents adsorption since the molecule cannot escape the system. The following filters were used: Polyethersulfone (PES) from […], part number CAR-505; Polyarylethersulfone (PAES) from Baxter, part number HF1000; Polyacrylonitrile (PAN) from Baxter, part number M100; Polysulfone (PS) from Baxter, part number F50; no filter, tubing only from Baxter, part number M100. Baxter tubing was used for all filter tests.

## N=C(N)c1ccc2cc(OC(=O)c3ccc(N=C(N)N)cc3)ccc2c1 [Nafamostat, nafamostat]
[1]; 0 min
  Percent of Nafamostat Remaining as a Ratio of the Starting Concentration at Time 0: 100%
[1]; 5 min
  Percent of Nafamostat Remaining as a Ratio of the Starting Concentration at Time 0: 100%
[1]; 10 min
  Percent of Nafamostat Remaining as a Ratio of the Starting Concentration at Time 0: 101%
[1]; 20 min
  Percent of Nafamostat Remaining as a Ratio of the Starting Concentration at Time 0: 100%
[1]; tubing used for all tests
  Adsorption onto the tubing: does not adsorb substantially
[2]; Example 8, Solution A 632 mg, 0 min
  Amount of Nafamostat Remaining as a Ratio of the Starting Concentration at Time 0: 99.2%
[2]; Example 8, Solution A 632 mg, 5 min
  Amount of Nafamostat Remaining as a Ratio of the Starting Concentration at Time 0: 8.5%
[2]; Example 8, Solution A 632 mg, 10 min
  Amount of Nafamostat Remaining as a Ratio of the Starting Concentration at Time 0: 0.8%
[2]; Example 8, Solution A 632 mg, 20 min
  Amount of Nafamostat Remaining as a Ratio of the Starting Concentration at Time 0: 0.0%
[2]; Example 8, Solution B-1, added 632 mg, 0 min
  Amount of Nafamostat Remaining as a Ratio of the Starting Concentration at Time 0: 100.0%
[2]; Example 8, Solution B-1, added 632 mg, 5 min
  Amount of Nafamostat Remaining as a Ratio of the Starting Concentration at Time 0: 14.6%
[2]; Example 8, Solution B-1, added 632 mg, 10 min
  Amount of Nafamostat Remaining as a Ratio of the Starting Concentration at Time 0: 6.2%
[2]; Example 8, Solution B-1, added 632 mg, 20 min
  Amount of Nafamostat Remaining as a Ratio of the Starting Concentration at Time 0: 3.1%
[2]; Example 8, Solution B-2, added 632 mg, 0 min
  Amount of Nafamostat Remaining as a Ratio of the Starting Concentration at Time 0: 100.0%
[2]; Example 8, Solution B-2, added 632 mg, 5 min
  Amount of Nafamostat Remaining as a Ratio of the Starting Concentration at Time 0: 20.0%
[2]; Example 8, Solution B-2, added 632 mg, 10 min
  Amount of Nafamostat Remaining as a Ratio of the Starting Concentration at Time 0: 14.6%
[2]; Example 8, Solution B-2, added 632 mg, 20 min
  Amount of Nafamostat Remaining as a Ratio of the Starting Concentration at Time 0: 10.8%
[2]; Example 8, Solution B-3, added 379 mg, 0 min
  Amount of Nafamostat Remaining as a Ratio of the Starting Concentration at Time 0: 100.0%
[2]; Example 8, Solution B-3, added 379 mg, 5 min
  Amount of Nafamostat Remaining as a Ratio of the Starting Concentration at Time 0: 20.8%
[2]; Example 8, Solution B-3, added 379 mg, 10 min
  Amount of Nafamostat Remaining as a Ratio of the Starting Concentration at Time 0: 19.2%
[2]; Example 8, Solution B-3, added 379 mg, 20 min
  Amount of Nafamostat Remaining as a Ratio of the Starting Concentration at Time 0: 17.7%
[2]; total quantity of 2275 milligrams delivered
  Saturation of the PAN filter with nafamostat: cannot be saturated
[3]; Example 2, PS F50, 158 mcg/mL, 0 min
  Quantity (% nafamostat free base) remaining after the initiation of priming: 100%
[3]; Example 2, PS F50, 158 mcg/mL, 5 min
  Quantity (% nafamostat free base) remaining after the initiation of priming: 96.7%
[3]; Example 2, PS F50, 158 mcg/mL, 10 min
  Quantity (% nafamostat free base) remaining after the initiation of priming: 96.8%
[3]; Example 2, PS F50, 158 mcg/mL, 20 min
  Quantity (% nafamostat free base) remaining after the initiation of priming: 97.2%
[3]; Example 2, PS F50, prime quantity 79,000 mcg, 5 min
  Quantity (mcg nafamostat free base) adsorbed over time (minutes): 2,620 mcg
[3]; Example 2, PS F50, prime quantity 79,000 mcg, 10 min
  Quantity (mcg nafamostat free base) adsorbed over time (minutes): 2,559 mcg
[3]; Example 2, PS F50, prime quantity 79,000 mcg, 20 min
  Quantity (mcg nafamostat free base) adsorbed over time (minutes): 2,222 mcg
[3]; Example 2, PS F50, prime quantity 79,000 mcg
  Quantity (mcg nafamostat free base) adsorbed over time (minutes), Avg.: 2,467 mcg
[3]; Example 3, PES CAR-505, 158 mcg/mL, 0 min
  Quantity (% nafamostat free base) remaining after the initiation of priming: 100%
[3]; Example 3, PES CAR-505, 158 mcg/mL, 5 min
  Quantity (% nafamostat free base) remaining after the initiation of priming: 95.6%
[3]; Example 3, PES CAR-505, 158 mcg/mL, 10 min
  Quantity (% nafamostat free base) remaining after the initiation of priming: 95.6%
[3]; Example 3, PES CAR-505, 158 mcg/mL, 20 min
  Quantity (% nafamostat free base) remaining after the initiation of priming: 95.6%
[3]; Example 3, PES CAR-505, prime quantity 79,000 mcg, 5 min
  Quantity (mcg nafamostat free base) adsorbed over time (minutes): 3,555 mcg
[3]; Example 3, PES CAR-505, prime quantity 79,000 mcg, 10 min
  Quantity (mcg nafamostat free base) adsorbed over time (minutes): 3,555 mcg
[3]; Example 3, PES CAR-505, prime quantity 79,000 mcg, 20 min
  Quantity (mcg nafamostat free base) adsorbed over time (minutes): 3,555 mcg
[3]; Example 3, PES CAR-505, prime quantity 79,000 mcg
  Quantity (mcg nafamostat free base) adsorbed over time (minutes), Avg.: 3,555 mcg
[3]; Example 4, PAES HF1000, 158 mcg/mL, 0 min
  Quantity (% nafamostat free base) remaining after the initiation of priming: 100%
[3]; Example 4, PAES HF1000, 158 mcg/mL, 5 min
  Quantity (% nafamostat free base) remaining after the initiation of priming: 96.9%
[3]; Example 4, PAES HF1000, 158 mcg/mL, 10 min
  Quantity (% nafamostat free base) remaining after the initiation of priming: 97.2%
[3]; Example 4, PAES HF1000, 158 mcg/mL, 20 min
  Quantity (% nafamostat free base) remaining after the initiation of priming: 97.1%
[3]; Example 4, PAES HF1000, prime quantity 79,000 mcg, 5 min
  Quantity (mcg nafamostat free base) adsorbed over time (minutes): 2,446 mcg
[3]; Example 4, PAES HF1000, prime quantity 79,000 mcg, 10 min
  Quantity (mcg nafamostat free base) adsorbed over time (minutes): 2,184 mcg
[3]; Example 4, PAES HF1000, prime quantity 79,000 mcg, 20 min
  Quantity (mcg nafamostat free base) adsorbed over time (minutes): 2,261 mcg
[3]; Example 4, PAES HF1000, prime quantity 79,000 mcg
  Quantity (mcg nafamostat free base) adsorbed over time (minutes), Avg.: 2,297 mcg
[3]; Example 5, PAN M100, 158 mcg/mL, 0 min
  Quantity (% nafamostat free base) remaining after the initiation of priming: 98.7%
[3]; Example 5, PAN M100, 158 mcg/mL, 5 min
  Quantity (% nafamostat free base) remaining after the initiation of priming: 20.5%
[3]; Example 5, PAN M100, 158 mcg/mL, 10 min
  Quantity (% nafamostat free base) remaining after the initiation of priming: 4.3%
[3]; Example 5, PAN M100, 158 mcg/mL, 20 min
  Quantity (% nafamostat free base) remaining after the initiation of priming: 0.3%
[3]; Example 5, PAN M100, prime quantity 79,000 mcg, 5 min
  Quantity (mcg nafamostat free base) adsorbed over time (minutes): 61,770 mcg
[3]; Example 5, PAN M100, prime quantity 79,000 mcg, 10 min
  Quantity (mcg nafamostat free base) adsorbed over time (minutes): 74,594 mcg
[3]; Example 5, PAN M100, prime quantity 79,000 mcg, 20 min
  Quantity (mcg nafamostat free base) adsorbed over time (minutes): 77,732 mcg
[3]; Example 5, PAN M100, prime quantity 79,000 mcg
  Quantity (mcg nafamostat free base) adsorbed over time (minutes), Avg.: 71,365 mcg
[3]; Example 6, PAN M100, 316 mcg/mL, 0 min
  Quantity (% nafamostat free base) remaining after the initiation of priming: 99.5%
[3]; Example 6, PAN M100, 316 mcg/mL, 5 min
  Quantity (% nafamostat free base) remaining after the initiation of priming: 20.4%
[3]; Example 6, PAN M100, 316 mcg/mL, 10 min
  Quantity (% nafamostat free base) remaining after the initiation of priming: 4.3%
[3]; Example 6, PAN M100, 316 mcg/mL, 20 min
  Quantity (% nafamostat free base) remaining after the initiation of priming: 0.4%
[3]; Example 6, PAN M100, prime quantity 158,000 mcg, 5 min
  Quantity (mcg nafamostat free base) adsorbed over time (minutes): 124,946 mcg
[3]; Example 6, PAN M100, prime quantity 158,000 mcg, 10 min
  Quantity (mcg nafamostat free base) adsorbed over time (minutes): 150,288 mcg
[3]; Example 6, PAN M100, prime quantity 158,000 mcg, 20 min
  Quantity (mcg nafamostat free base) adsorbed over time (minutes): 156,502 mcg
[3]; Example 6, PAN M100, prime quantity 158,000 mcg
  Quantity (mcg nafamostat free base) adsorbed over time (minutes), Avg.: 143,912 mcg
[3]; Example 7, PAN M100, 632 mcg/mL, 0 min
  Quantity (% nafamostat free base) remaining after the initiation of priming: 99.1%
[3]; Example 7, PAN M100, 632 mcg/mL, 5 min
  Quantity (% nafamostat free base) remaining after the initiation of priming: 17.4%
[3]; Example 7, PAN M100, 632 mcg/mL, 10 min
  Quantity (% nafamostat free base) remaining after the initiation of priming: 2.7%
[3]; Example 7, PAN M100, 632 mcg/mL, 20 min
  Quantity (% nafamostat free base) remaining after the initiation of priming: 0.04%
[3]; Example 7, PAN M100, prime quantity 316,000 mcg, 5 min
  Quantity (mcg nafamostat free base) adsorbed over time (minutes): 258,314 mcg
[3]; Example 7, PAN M100, prime quantity 316,000 mcg, 10 min
  Quantity (mcg nafamostat free base) adsorbed over time (minutes): 304,629 mcg
[3]; Example 7, PAN M100, prime quantity 316,000 mcg, 20 min
  Quantity (mcg nafamostat free base) adsorbed over time (minutes): 313,065 mcg
[3]; Example 7, PAN M100, prime quantity 316,000 mcg
  Quantity (mcg nafamostat free base) adsorbed over time (minutes), Avg.: 292,003 mcg
[3]; non-PAN filter (PAES)
  Time in which the change in concentration is complete: ≤ 5 min
[3]; non-PAN filter (PES)
  Time in which the change in concentration is complete: ≤ 5 min
[3]; non-PAN filter (PS)
  Time in which the change in concentration is complete: ≤ 5 min
[3]; within the first 5 minutes
  Change in concentration in the PAN filters: 80%
[3]; within the first 10 minutes
  Change in concentration in the PAN filters: 95%
[3]; within the first 15 minutes
  Change in concentration in the PAN filters: 99%
[3]; within the first 20 minutes
  Change in concentration in the PAN filters: 99.5%
